For this test, the system named is Armyworms (Spodoptera exigua). The test is described as follows: Contact study on armyworm first instar larvae. The settings on record: for mode of insecticidal action: contact exposure of first instar larvae. Type of test: in vivo. The source says:
Contact Study of MOI 201 on Armyworms (Spodoptera exigua)
Objective: Observe the mode of action and the symptoms caused by 0.6% oxymatrine on larvae of armyworms, as well as to quantify the time required for the larvae to become paralyzed or dead.
Method: Larvae of beet armyworm were taken as first In-star stage and placed on a microscope slide under a stereomicroscope. A drop of the test product was delivered over them and the larvae were left to soak for 30 seconds. Excess liquid was absorbed with a paper towel and the larvae were observed under the microscope. The products tested were Spinosad at 0.3%, Permethrin at 1%, and 0.6% oxymatrine at 800× and 1000× dilutions. Time 1 indicates the time it took before the larva was unable to perform normal activities like crawling, feeding, etc. Time 2 is the additional time needed for complete elimination/death.

Setting [1] is: Spinosad at 0.3%, Permethrin at 1%, 30 s soak, average of 5 reps.
[2] abbreviates: Spinosad at 0.3%, Permethrin at 1%, 30 s soak, reps 1-5.

Where “and” joins values, the source holds several entries; their conditions need not be identical. Equal values may be shown once. Read-outs that look alike come from different tables or passages of the source.

Turning to Spinosad, the “mode of insecticidal action” value was “work as contact insecticides”. Besides, under setting [1], the “Time 1: time required for paralysis or convulsions, Average” value turned out to be 6.99 min; the “Time 2: time between paralysis and death, Average” value was determined as 289.00 min. Under setting [2], the “Time 1: time required for paralysis or convulsions, single replicate” value is 7.58 min and 8.46 min and 6.33 min and 6.4 min and 6.17 min; the “Time 2: time between paralysis and death, single replicate” value was 146 min and 180 min and 363 min and 373 min and 383 min. In addition, the “period of time to affect the insect's basic functions” value (text summary of Time 1, Spinosad 0.3%, Permethrin 1%, 0.6% oxymatrine at 800x and 1000x dilutions) was 7.0 min.

With `CC1(C)C(C=C(Cl)Cl)C1C(=O)OCc1cccc(Oc2ccccc2)c1` (centres unmarked) [Permethrin], the “Time 1: time required for paralysis or convulsions, Average” value stood at 1.22 min; the “period of time to affect the insect's basic functions” value turned out to be 1.2 min; the “mode of insecticidal action” value was “work as contact insecticides”. Also, the “Time 2: time between paralysis and death, Average” value under setting [1] was determined as 333.60 min. Besides, the “Time 2: time between paralysis and death, single replicate” value under setting [2] was 447 min and 428 min and 397 min and 97 min and 299 min.

(Values after patent US20080300225A1, “PESTICIDAL FORMULATION CONTAINING OXYMATRINE OR MATRINE” (Marrone Organic Innovations, priority 2007, published 2008).)
